Structures are written as SMILES. “And” between values parts separate entries of the source, which are not always exact repeats. Equal entries are not always repeated.

Here are results for 36 compounds from PMC3968014, “Design and Synthesis of a Library of Lead-Like 2,4-Bisheterocyclic Substituted Thiophenes as Selective Dyrk/Clk Inhibitors” (PLoS ONE, 2014).

In one data set the target is T1, Dyrk1A (Homo sapiens, UniProt Q13627).
T1 construct: encoding the catalytic domain of human Dyrk1A; thrombin cleavage site (N); made in house; host or cells: Escherichia coli BL21(DE3) with pRARE
Nature of the data set: Dyrk1A kinase assay (32P-ATP, Woodtide). The data set is classed as biochemical. Conditions: for inhibition at 5 µM: read-out: percentage of inhibition Dyrk1A; for inhibition at 5 µM / percentage of inhibition Dyrk1A: at 5 µM; for IC50: 100 µM ATP.

The target in the next data set is T2, Dyrk2 (Homo sapiens, UniProt Q92630).
T2 construct: made in house; host or cells: Escherichia coli BL21(DE3) with pRARE; plasmid pGEX-2TK-Dyrk2 (gift from W. Becker, Aachen)
T2 sequence (Q92630 1-601): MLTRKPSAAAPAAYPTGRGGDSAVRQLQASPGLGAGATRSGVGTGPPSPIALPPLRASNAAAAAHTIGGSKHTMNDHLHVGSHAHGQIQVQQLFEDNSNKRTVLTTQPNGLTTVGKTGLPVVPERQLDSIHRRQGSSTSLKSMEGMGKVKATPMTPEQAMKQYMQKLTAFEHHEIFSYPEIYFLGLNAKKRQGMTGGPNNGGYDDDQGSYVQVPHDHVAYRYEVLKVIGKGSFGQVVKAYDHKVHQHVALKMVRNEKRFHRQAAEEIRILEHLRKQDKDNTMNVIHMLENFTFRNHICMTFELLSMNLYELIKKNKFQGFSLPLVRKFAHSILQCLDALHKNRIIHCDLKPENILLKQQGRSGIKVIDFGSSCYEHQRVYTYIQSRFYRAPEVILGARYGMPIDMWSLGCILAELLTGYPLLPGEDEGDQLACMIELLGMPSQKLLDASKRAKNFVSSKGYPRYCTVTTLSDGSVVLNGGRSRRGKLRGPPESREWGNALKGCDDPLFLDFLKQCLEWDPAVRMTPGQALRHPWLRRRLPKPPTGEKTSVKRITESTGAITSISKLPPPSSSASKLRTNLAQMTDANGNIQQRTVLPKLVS
Nature of the data set: Dyrk2 kinase assay (32P-ATP, Woodtide). The following applies: for inhibition at 5 µM / inhibition at 1 µM: read-out: percentage of inhibition Dyrk2; for IC50: 100 µM ATP, read-out: IC50 Dyrk2. The data set is classed as biochemical.

For a further data set, the target named is T3, Dyrk1B (Homo sapiens, UniProt Q9Y463).
T3 construct: purchased Life Technologies PV4649 (LOT # 877059G)
T3 sequence (Q9Y463 whole entry): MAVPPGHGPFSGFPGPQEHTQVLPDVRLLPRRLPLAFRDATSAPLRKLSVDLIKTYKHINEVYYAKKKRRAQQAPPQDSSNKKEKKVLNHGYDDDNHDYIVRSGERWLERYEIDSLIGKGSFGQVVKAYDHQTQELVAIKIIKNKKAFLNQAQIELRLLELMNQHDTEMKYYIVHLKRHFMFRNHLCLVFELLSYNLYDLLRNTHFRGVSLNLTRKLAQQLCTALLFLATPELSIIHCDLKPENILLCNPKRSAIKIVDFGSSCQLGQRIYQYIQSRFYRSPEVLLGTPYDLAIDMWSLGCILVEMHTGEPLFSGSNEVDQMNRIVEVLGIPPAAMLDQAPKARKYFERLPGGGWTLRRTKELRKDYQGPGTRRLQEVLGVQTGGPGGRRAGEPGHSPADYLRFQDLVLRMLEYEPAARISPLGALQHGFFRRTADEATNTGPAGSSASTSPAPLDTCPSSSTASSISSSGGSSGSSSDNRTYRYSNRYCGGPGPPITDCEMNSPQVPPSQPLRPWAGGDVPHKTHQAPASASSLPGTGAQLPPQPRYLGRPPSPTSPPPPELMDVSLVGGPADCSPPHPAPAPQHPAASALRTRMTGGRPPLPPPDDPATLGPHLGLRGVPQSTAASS
Description: Dyrk1B kinase assay (32P-ATP, Woodtide). Type of data set: biochemical. Conditions: for percentage of inhibition Dyrk1B / inhibition at 5 µM: at 5 µM; for inhibition at 5 µM / inhibition at 1 µM: read-out: percentage of inhibition Dyrk1B; for IC50: 100 µM ATP.

For a further data set, the target named is T4, CK2α (Homo sapiens, UniProt P68400).
T4 construct: purchased Life Technologies (Invitrogen SelectScreen); Dyrk1A, Dyrk2 and CK2α in-house or gifts
T4 sequence (P68400 whole entry): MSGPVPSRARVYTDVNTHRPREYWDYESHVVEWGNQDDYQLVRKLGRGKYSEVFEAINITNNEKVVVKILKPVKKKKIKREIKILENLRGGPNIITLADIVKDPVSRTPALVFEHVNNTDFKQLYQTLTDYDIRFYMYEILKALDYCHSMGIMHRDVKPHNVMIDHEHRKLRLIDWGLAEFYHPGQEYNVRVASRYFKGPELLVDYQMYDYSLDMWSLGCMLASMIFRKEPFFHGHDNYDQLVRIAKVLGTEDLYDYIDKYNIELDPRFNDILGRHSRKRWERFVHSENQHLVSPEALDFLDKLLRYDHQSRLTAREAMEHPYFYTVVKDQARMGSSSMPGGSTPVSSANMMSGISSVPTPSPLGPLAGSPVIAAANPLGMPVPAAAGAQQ
Description: CK2α kinase assay (counter screen). Type of data set: biochemical. Conditions: read-out: percentage of inhibition CK2α. Here is the method: Dyrk1A, Dyrk1B, Dyrk2, CK2α and Clk1 kinase reactions were performed in a reaction buffer containing 50 mM Tris/HCl, pH 7.4, 0.1 mM EGTA, 0.5 mM DTT, 10 mM MgCl2, 100 µM ATP and 0.33 µM [γ-^32ATP] as well as the appropriate substrate peptides, which were 100 µM Woodtide for the Dyrk isoforms ([…]-NH2), 60 µM CK2 substrate peptide ([…]-NH2, from Millipore) for CK2α or RS repeat peptide ([…]) for Clk1. The CK2α protein was a kind gift of M. Montenarh (Homburg). The kinase reactions were performed at 30°C for 15 min and terminated by spotting 5 µL of the reaction mixture onto a P81 phosphocellulose membrane (Whatman). The membrane was washed four times with 0.3% phosphoric acid and one time with acetone and dried. The dry membrane was exposed in a cassette to a Phosphor Screen Imaging Plate (FujiFilm) and the signals detected by scanning of the imaging plate in a Fuji FLA-3000 PhosphoImager. The spots were quantified using AIDA software (Raytest, Version 3.52) to determine the activities of the kinases in the assay reactions. […] IC50 values were calculated by fitting the data with Origin Pro 8.6 (OriginLabs). The calculated IC50 values are representative of at least two independent determinations.

A word on the inhibition: it is the relative decrease from the control value, in per cent. In the case of `Cc1cc(O)cc(-c2csc(-c3cccc(O)c3)c2)c1` [Compound 2], the inhibition at 5 µM at Dyrk1A was 10%.
With `c1cncc(-c2cc(-c3ccc4c(c3)CCO4)cs2)c1` [Compound 27], on Dyrk1A, the “percentage of inhibition Dyrk1A” value was “No inhibition”. The inhibition at 5 µM at Dyrk2 (at 5 µM) turned out to be 31%. At Dyrk1B, the “percentage of inhibition Dyrk1B” value is “No inhibition”.
Turning to `Cn1ccc(-c2csc(-c3cccnc3)c2)cc1=O` [Compound 26], the “percentage of inhibition Dyrk1A” value at Dyrk1A is “No inhibition”. Moreover, at Dyrk2 (at 5 µM), the inhibition at 5 µM turned out to be 27%. Further, the “percentage of inhibition Dyrk1B” value on Dyrk1B is on record as “No inhibition”.
For the compound `CSc1ncc(-c2csc(-c3cnco3)c2)cn1` [Compound 37], the inhibition at 5 µM on Dyrk1A came to 7%; at Dyrk2 (at 5 µM), 5%; at Dyrk1B, 21%.
The IC50 is the midpoint of a concentration-inhibition curve. With `c1ccc2c(-c3csc(-c4cnco4)c3)cncc2c1` [Compound 39], the inhibition at 5 µM on Dyrk1A was 20%; on Dyrk2 (at 5 µM), 19%. This compound also yielded an IC50 against Dyrk1B of 8070 nM.
With `Cc1cc(-c2csc(-c3cccnc3)c2)ccn1` [Compound 12], the inhibition at 5 µM at Dyrk1A turned out to be 23%; at Dyrk2 (at 5 µM), 37.5%. In addition, the “percentage of inhibition Dyrk1B” value on Dyrk1B is “No inhibition”.
For `N#Cc1cncc(-c2csc(-c3cccnc3)c2)c1` [Compound 13], at Dyrk1A, it took 2600 nM to reach half-maximal inhibition (IC50). In addition, the figures for the inhibition at 5 µM at Dyrk2 (at 5 µM), at CK2α and at Dyrk1B were 44%, 3% and 30%, respectively.
As usually defined, the melting point is the temperature, or range, at which the solid turns liquid. The compound `COc1cncc(-c2csc(-c3cccnc3)c2)c1` [Compound 8, 3-methoxy-5-[5-(pyridin-3-yl)thiophen-3-yl]pyridine] registered a melting point of 132 to 133 °C. At Dyrk1A, this compound registered an IC50 of 700 nM. Besides, the IC50 on Dyrk2 amounted to 200 nM. Besides, the inhibition at 5 µM at CK2α turned out to be 16%. This compound also gave an IC50 on Dyrk1B of 300 nM.
Take `c1cncc(-c2cc(-c3cncnc3)cs2)c1` [Compound 22]: the IC50 on Dyrk1A is 1800 nM; on Dyrk2 it was 1800 nM; at Dyrk1B, 3500 nM. Further, on CK2α, the inhibition at 5 µM worked out at 0%.
`CSc1ncc(-c2csc(-c3cncnc3)c2)cn1` [Compound 45]: the inhibition at 5 µM was 8% on Dyrk1A, -24% at Dyrk2 (at 5 µM) and 20% on Dyrk1B.
For the compound `Clc1cncc(-c2csc(-c3cccnc3)c2)c1` [Compound 16], the results for the IC50 on Dyrk1A, at Dyrk2 and against Dyrk1B were 1200 nM, 700 nM and 1900 nM, respectively. In addition, the inhibition at 5 µM on CK2α came to 14%.
For `CCOc1cncc(-c2csc(-c3cccnc3)c2)c1` [Compound 10], the results for the inhibition at 5 µM at Dyrk1A and at CK2α were 45% and 0%, respectively. In addition, the inhibition at 1 µM at Dyrk2 came out at 22%; on Dyrk1B, 6%.
Regarding `Cn1cncc1-c1csc(-c2cccnc2)c1` [Compound 31], the inhibition at 5 µM at Dyrk1A came out at 44%. Moreover, the IC50 on Dyrk2 was 5100 nM; at Dyrk1B it was 9100 nM.
As to `Cc1ccc(-c2csc(-c3cccnc3)c2)cn1` [Compound 7], the concentration for half-maximal inhibition (IC50) at Dyrk1A amounted to 4700 nM; at Dyrk2, 1600 nM; on Dyrk1B, 3400 nM. The inhibition at 5 µM at CK2α was 0%.
Take `COc1ccc(-c2csc(-c3cccnc3)c2)cn1` [Compound 9]: the “percentage of inhibition Dyrk2” value at Dyrk2 (at 5 µM) is “No inhibition”. Also, the inhibition at 5 µM at CK2α came to 0%. In addition, on Dyrk1B, inhibition was half-maximal at 34000 nM (IC50).
Turning to `Nc1cc(-c2csc(-c3cccnc3)c2)cnc1Cl` [Compound 23], the IC50 came out at 1300 nM at Dyrk1A, 300 nM at Dyrk2 and 1400 nM against Dyrk1B. On CK2α, the inhibition at 5 µM was 0%.
The like results for `c1cncc(-c2cc(-c3cncc4ccccc34)cs2)c1` [Compound 21] were, in that order, 3500 nM, 2900 nM, 3200 nM and 6%.
On to `c1ncc(-c2csc(-c3cncnc3)c2)cn1` [Compound 44], for which the figures for the inhibition at 5 µM at Dyrk1A, at Dyrk2 (at 5 µM) and at Dyrk1B were 2%, 27% and 27%, respectively.
Take `c1cc2cc(-c3csc(-c4cnco4)c3)ccc2[nH]1` [Compound 40]: the inhibition at 5 µM on Dyrk1A worked out at 18%; at Dyrk2 (at 5 µM), 30%; at Dyrk1B, 9%.
For `Cc1ccncc1-c1csc(-c2cccnc2)c1` [Compound 6], the IC50 against Dyrk1A was determined as 4400 nM; at Dyrk1B, 8000 nM. On Dyrk2, the inhibition at 1 µM was 10%. Moreover, the inhibition at 5 µM on CK2α is 0%.
As to `c1cncc(-c2cc(-c3cnc4ccccc4c3)cs2)c1` [Compound 20], the figures for the IC50 at Dyrk1A, on Dyrk2 and on Dyrk1B were 1100 nM, 1800 nM and 900 nM, respectively. Also, at CK2α, the inhibition at 5 µM stood at 27%.
With `c1ccc2c(-c3csc(-c4cncnc4)c3)cncc2c1` [Compound 46], the inhibition at 5 µM on Dyrk1A stood at 9%; on Dyrk2 (at 5 µM), 15%; at Dyrk1B it was 33%.
The like results for `Clc1cncc(-c2csc(-c3cncnc3)c2)c1` [Compound 42] were, in that order, 1%, 0% and 5%.
As for `c1ncc(-c2csc(-c3cnco3)c2)cn1` [Compound 36], the inhibition at 5 µM at Dyrk1A worked out at 25%; on Dyrk2 (at 5 µM), 16%; at Dyrk1B, 40%.
For `FC(F)(F)c1cncc(-c2csc(-c3cccnc3)c2)c1` [Compound 14], the IC50 came out at 3100 nM against Dyrk1A, 3000 nM at Dyrk2 and 5400 nM against Dyrk1B. On CK2α, the inhibition at 5 µM was 0%.
The like results for `c1cncc(-c2cc(-c3cnc4ccccn34)cs2)c1` [Compound 32] were, in that order, 2200 nM, 400 nM, 600 nM and 0%.
For the compound `c1cncc(-c2csc(-c3cncc4ccccc34)c2)c1` [Compound 47], the IC50 on Dyrk1A is 1500 nM; on Dyrk2, 1200 nM; against Dyrk1B it was 2400 nM. The inhibition at 5 µM on CK2α amounted to 3%.
The like results for `Cc1cncc(-c2csc(-c3cnco3)c2)c1` [Compound 35] were, in that order, 1200 nM, 1500 nM, 1100 nM and -15%.
For the compound `Clc1cncc(-c2csc(-c3cnco3)c2)c1` [Compound 34], the inhibition at 5 µM was 0% at Dyrk1A, 12% on Dyrk2 (at 5 µM) and 18% at Dyrk1B.
Take `c1cncc(-c2cc(-c3cscn3)cs2)c1` [Compound 28]: the inhibition at 5 µM at Dyrk1A turned out to be 31%. In addition, at Dyrk2, the IC50 is 6700 nM.
Turning to `Cc1cncc(-c2csc(-c3cncnc3)c2)c1` [Compound 43], the IC50 against Dyrk1A was 5000 nM; on Dyrk2 it was 3800 nM; at Dyrk1B, 2200 nM. Besides, the inhibition at 5 µM on CK2α was -15%.
For `COC(=O)c1cncc(-c2csc(-c3cccnc3)c2)c1` [Compound 18], the IC50 came to 1200 nM against Dyrk1A, 1500 nM on Dyrk2 and 1700 nM on Dyrk1B. Further, the inhibition at 5 µM at CK2α came out at 14%.
Regarding `Cc1cc(-c2csc(-c3cccc(O)c3)c2)ccc1O` [Compound 1], the IC50 at Dyrk1A came out at 2000 nM. For the same compound, the inhibition at 5 µM at CK2α stood at 15%.
Turning to `[O-][n+]1cccc(-c2csc(-c3cccnc3)c2)c1` [Compound 25], at Dyrk1A, the inhibition at 5 µM amounted to 4%.
Consider `c1ncc(-c2cc(-c3cn[nH]c3)cs2)o1` [Compound 38], for which the values for the IC50 against Dyrk1A, on Dyrk2 and against Dyrk1B were 1500 nM, 1500 nM and 2200 nM, respectively. Besides, the inhibition at 5 µM on CK2α is -20%.
As for `Cn1cnc2cc(-c3csc(-c4cccnc4)c3)cnc21` [Compound 24], the inhibition at 5 µM on Dyrk1A is 37%; at CK2α it was 7%. The 50% inhibitory concentration (IC50) on Dyrk2 was 630 nM and 600 nM. The inhibition at 1 µM at Dyrk1B was 13%.
